Results as given in US20230078764A1 (Yumanity Therapeutics, Inc., priority 2019, published 2023).

Experiments:
human SCD5 = target: T1, human SCD5 (Homo sapiens, UniProt Q86SK9); assay: Growth inhibition of yeast strain expressing human SCD5 as sole desaturase (OLE1 deleted), OD600 readout; assay type: cell-based; settings: yeast strain expressing human SCD5 as sole desaturase; growth (OD600) after 40 h at 30° C.; read-out: SCD5 IC50
T1 construct: expressed in transfected cells; host or cells: yeast strain with OLE1 deleted, plasmid-borne human SCD5 (selected in SD-Ura)
T1 sequence (Q86SK9 1-330): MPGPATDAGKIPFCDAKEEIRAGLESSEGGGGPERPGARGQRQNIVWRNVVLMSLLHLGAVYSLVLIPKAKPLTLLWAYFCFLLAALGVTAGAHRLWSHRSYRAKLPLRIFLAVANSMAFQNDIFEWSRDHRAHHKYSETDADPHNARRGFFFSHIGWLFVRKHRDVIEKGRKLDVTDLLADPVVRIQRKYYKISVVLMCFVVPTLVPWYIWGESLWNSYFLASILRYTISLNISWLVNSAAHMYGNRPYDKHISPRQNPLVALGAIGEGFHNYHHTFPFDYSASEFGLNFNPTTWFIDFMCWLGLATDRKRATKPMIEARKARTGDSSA

human SCD1 = target: T2, human SCD1 (Homo sapiens, UniProt O00767); assay: Growth inhibition of yeast strain expressing human SCD1 as sole desaturase (OLE1 deleted), OD600 readout; assay type: cell-based; settings: yeast strain expressing human SCD1 as sole desaturase; growth (OD600) after 40 h at 30° C.; read-out: SCD1 IC50
T2 construct: expressed in transfected cells; host or cells: yeast strain with OLE1 deleted, plasmid-borne human SCD1 (selected in SD-Ura)
T2 sequence (O00767 1-359): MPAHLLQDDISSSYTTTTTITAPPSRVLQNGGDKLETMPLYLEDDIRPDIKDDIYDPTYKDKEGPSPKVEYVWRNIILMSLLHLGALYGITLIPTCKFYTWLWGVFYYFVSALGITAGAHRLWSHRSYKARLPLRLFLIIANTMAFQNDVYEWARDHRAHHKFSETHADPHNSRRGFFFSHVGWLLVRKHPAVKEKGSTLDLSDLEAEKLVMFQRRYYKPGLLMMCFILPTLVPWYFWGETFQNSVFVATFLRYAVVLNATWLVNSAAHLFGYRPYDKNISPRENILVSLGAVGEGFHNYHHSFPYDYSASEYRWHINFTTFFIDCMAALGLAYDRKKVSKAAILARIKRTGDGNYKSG

IC50 (human SCD5) [µM]	IC50 (human SCD1) [µM]	Compound
0.01	> 45	Cn1ccc(NC(=O)c2ccc(Cc3cccc(F)c3)cn2)n1 [Compound 95, 5-(3-fluorobenzyl)-N-(1-methyl-1H-pyrazol-3-yl)picolinamide]
0.062	0.68	Cc1ncc(C(=O)Nc2ccc(Cc3cc(F)cc(F)c3)cn2)cn1 [Compound 581]
0.064	43	Cn1nc(C(=O)Nc2ccc(Cc3cc(F)c(F)c(C#N)c3)cn2)ccc1=O [Compound 558]
0.13	1.1	Cn1nc(C(=O)Nc2ccc(Cc3cccc(Cl)c3)cn2)ccc1=O [Example 47, N-(5-(3-chlorobenzyl)pyridin-2-yl)-1-methyl-6-oxo-1,6-dihydropyridazine-3-carboxamide]
1.3	3.2	N#Cc1nc(C(=O)Nc2ccc(Cc3cccc(F)c3)cn2)cs1 [Compound 640]
0.066	> 45	O=C(Nc1ccc(Cc2ccc(F)c(F)c2)cn1)c1cnc(Cl)cn1 [Compound 602]
0.45	> 45	CN1N=C(C(=O)Nc2ccc(Cc3cccc(Cl)c3)cn2)CCC1=O [Example 15, N-(5-(3-chlorobenzyl)pyridin-2-yl)-1-methyl-6-oxo-1,4,5,6-tetrahydropyridazine-3-carboxamide]
0.05	> 45	Cc1nccc(NC(=O)c2ccc(Cc3cccc(F)c3)cn2)n1 [Compound 115, 5-(3-Fluorobenzyl)-N-(2-methylpyrimidin-4-yl)picolinamide]
0.142	> 45	N#Cc1cnc(C(=O)Nc2ccc(Cc3cccc(F)c3)cn2)c(F)c1 [Compound 636]
0.056	1.9	N#Cc1cnc(C(=O)Nc2ccc(Cc3ccc(F)c(C#N)c3)cn2)cn1 [Compound 654]
0.01	0.11	Cn1nc(C(=O)Nc2ccc(Cc3cc(F)cc(Cl)c3)cn2)ccc1=O [Example 40, N-(5-(3-chloro-5-fluorobenzyl)pyridin-2-yl)-1-methyl-6-oxo-1,6-dihydropyridazine-3-carboxamide]
0.03	0.3	CCn1cc(C(=O)Nc2ccc(Cc3cccc(Cl)c3)cn2)cn1 [Compound 373]
0.02	1.08	CCn1ccc(C(=O)Nc2ccc(Cc3cccc(F)c3)cn2)n1 [Compound 101, 1-ethyl-N-(5-(3-fluorobenzyl)pyridin-2-yl)-1H-pyrazole-3-carboxamide]
7.8	24.7	O=C(Nc1ccc(Cc2cccc(Cl)c2)cn1)c1ccc2nccn2c1 [Compound 155, N-(5-(3-chlorobenzyl)pyridin-2-yl)imidazo[1,2-a]pyridine-6-carboxamide]
3.02	> 45	Cn1nc(C(=O)Nc2ccc(Cc3cncc(Cl)c3)cn2)ccc1=O [Compound 275]
> 45	> 45	CC(O)C1CN(C(=O)Nc2ccc(Cc3cccc(Cl)c3)cn2)C1 (stereo not drawn) [Compound 472]
0.01	0.11	Cn1nc(NC(=O)c2ccc(Cc3cccc(Cl)c3)cn2)ccc1=O [Compound 89, 5-(3-Chlorobenzyl)-N-(1-methyl-6-oxo-1,6-dihydropyridazin-3-yl)picolinamide]
0.039	0.22	Cn1cc(C(=O)Nc2ccc(Cc3ccc(Cl)c(C#N)c3)cn2)ccc1=O [Compound 617]
1.77	1.88	CN1N=C(C(=O)Nc2ncc(Cc3cc(F)ccc3F)s2)CCC1=O [Compound 235, N-(5-(2,5-difluorobenzyl)thiazol-2-yl)-1-methyl-6-oxo-1,4,5,6-tetrahydropyridazine-3-carboxamide]
> 45	6.24	CN1N=C(C(=O)Nc2ccc(Cc3cccc(CO)c3)cn2)CCC1=O [Compound 436]
0.18	1.6	Cn1nc(C(=O)Nc2ccc(COc3cc(F)cc(F)c3)cn2)ccc1=O [Compound 658]
0.01	5.19	CCn1cc(NC(=O)c2ccc(Cc3cc(F)cc(Cl)c3)cn2)ccc1=O [Compound 79, 5-(3-Chloro-5-fluorobenzyl)-N-(1-ethyl-6-oxo-1,6-dihydropyridin-3-yl)picolinamide]
6.5	25	CC(C)(C#N)c1ccc(C(=O)Nc2ccc(Cc3cccc(Cl)c3)cn2)cn1 [Compound 491]
0.12	0.44	CCn1nc(C(=O)Nc2ccc(Cc3cccc(Cl)c3)cn2)ccc1=O [Compound 67, N-(5-(3-chlorobenzyl)pyridin-2-yl)-1-ethyl-6-oxo-1,6-dihydropyridazine-3-carboxamide]

IC50 (human SCD5) [µM]	IC50 (human SCD1) [µM]	Compound
0.26	3.98	Cn1nc(C(=O)Nc2ccc(COc3cccc(Cl)c3)cn2)ccc1=O [Compound 262]
> 45	0.18	Cn1cc(C(=O)Nc2ccc(Cc3cncc(F)c3)cn2)ccc1=O [Compound 453]
0.46	> 45	O=C(Nc1ccc(Cc2cccc(Cl)c2)cn1)c1cnc(Cl)c(F)c1 [Compound 319]
4.36	> 45	CCCn1nc(C(=O)Nc2ccc(Cc3cccc(Cl)c3)nn2)ccc1=O [Compound 257]
0.32	0.28	O=C(Nc1ccc(Cc2cccc(Cl)c2)cn1)c1ccc([C@@H](O)CO)nc1 [Compound 605]
> 45	> 45	Cn1c(C(=O)Nc2ccc(Cc3cccc(F)c3)cn2)cc(=O)n1C [Compound 459]
5.8	> 45	N#Cc1ccc(C(=O)Nc2ccc(COc3cccc(Cl)c3)cn2)cn1 [Compound 492]
4.27	> 45	Cn1cc(C(=O)N[C@H]2CC[C@H](Cc3cccc(Cl)c3)CC2)ccc1=O [Compound 336]
> 45	> 45	Cn1nc(C(=O)NCc2ccc(Cc3cccc(F)c3)cn2)ccc1=O [Compound 411]
0.3	> 45	CN1N=C(NC(=O)c2ccc(Cc3cccc(C(F)F)c3)cn2)CCC1=O [Compound 294]
0.49	17	Cn1nc(C(=O)Nc2ccc(Cc3ccc(F)cc3F)cn2)ccc1=O [Compound 537]
20.9	> 45	Cn1cc(C(=O)Nc2ccc(Nc3cccc(Cl)c3)cn2)ccc1=O [Compound 342]
4.52	> 45	CN(C)C(=O)c1ccc(NC(=O)c2ccc(Cc3cccc(Cl)c3)cn2)cc1 [Compound 284]
17.7	> 45	CC1(C)CN(C(=O)c2ccc(Cc3cccc(F)c3)cn2)CCO1 [Compound 339]
0.042	0.037	CC(O)c1cnc(C(=O)Nc2ccc(Cc3ccc(F)c(F)c3)cn2)nc1 (stereo not drawn) [Compound 604]
0.086	1.9	Cn1cc(C(=O)Nc2ccc(Cc3cccc(Cl)c3)cn2)cnc1=O [Compound 652]
2.63	> 45	Cn1cc(C(=O)Nc2ccc(OCc3cccc(Cl)c3)cn2)ccc1=O [Compound 361]
> 45	> 45	CN1N=C(C(=O)Nc2ccc(NCc3cc(F)cc(C#N)c3)nc2)CCC1=O [Compound 439]
0.2	0.2	Cn1ccc(C(=O)Nc2ccc(Cc3cc(F)cc(C#N)c3)cn2)cc1=O [Compound 620]
0.12	0.43	Cn1c(C(=O)Nc2ccc(Cc3cc(F)cc(F)c3)cn2)coc1=O [Compound 509]
6.75	> 45	O=C(Nc1ccc(Cc2cccc(Cl)c2)cn1)N1CCn2nccc2C1 [Compound 249]
1.96	21.5	Cn1cc(C(=O)Nc2ccc(Cc3cc(C(F)(F)F)ccn3)cn2)ccc1=O [Compound 279]
16.3	> 45	Cn1nc(C(=O)Nc2cc(Cc3ccc(Cl)cc3)ccn2)ccc1=O [Compound 338]

Compound	IC50 (human SCD5) [µM]	IC50 (human SCD1) [µM]
CCn1ccc(C(=O)Nc2ccc(Cc3ccc(F)c(F)c3)cn2)n1 [Compound 98, N-(5-(3,4-difluorobenzyl)pyridin-2-yl)-1-ethyl-1H-pyrazole-3-carboxamide]	0.04	2.96
Cn1cc(C(=O)Nc2ccc(Cc3cccc(F)c3)nn2)ccc1=O [Compound 176, N-(6-(3-fluorobenzyl)pyridazin-3-yl)-1-methyl-6-oxo-1,6-dihydropyridine-3-carboxamide]	2.66	> 45
CCn1cc(C(=O)Nc2ccc(Cc3ccc(F)cc3)cn2)ccc1=O [Compound 81, 1-ethyl-N-(5-(4-fluorobenzyl)pyridin-2-yl)-6-oxo-1,6-dihydropyridine-3-carboxamide]	2.42	> 45
CCCn1nc(C(=O)Nc2ccc(Cc3cccc(F)c3)cn2)ccc1=O [Compound 71, N-(5-(3-fluorobenzyl)pyridin-2-yl)-6-oxo-1-propyl-1,6-dihydropyridazine-3-carboxamide]	3.91	> 45
